Test results published in US7601336B2, “Pharmaceutical aerosol composition” (Chiesi Farmaceutici S.p.A., priority 1997, dated 2009).

Assay: Aerodynamic particle size distribution by Andersen Cascade Impactor (ACI), ten cumulative actuations, drug on plates by HPLC
Type: physicochemical
Settings: HFA 134a
Method: The aerosol compositions of the invention described below were prepared by the following method. The required components of a composition were added into a can in the following order: drug, non-volatile additive, absolute ethanol. After crimping of the valve on to the can, the propellant was added through the valve. The weight gain of the can after each component was added was recorded to allow the percentage, by weight, of each component in the formulation to be calculated. The aerodynamic particle size distribution of each formulation was characterized using a Multistage Cascade Impactor according to the procedure described in the European Pharmacopoeia 2nd edition, 1995, part V.5.9.1. pages 15-17. In this specific case an Andersen Cascade Impactor (ACI) was used. Results represented were obtained from ten cumulative actuations or a formulation. Deposition of the drug on each ACI plate was determined by high pressure liquid chromatography. The mass median aerodynamic diameter (MMAD) and geometric standard deviation (GSD) were calculated from plots of the cumulative percentage undersize of drug collected on each ACI plate (probit scale), against the upper cut off diameter for each respective ACI plate (log10 scale). The fine particle dose of each formulation was determined from the mass of drug collected on Stages 2 through to Filter (<5.8 μm) divided by the number of actuations per experiment.

[1] = Flunisolide 50 mg/10 ml, ethanol 15.0 ± 0.1%, menthol 0% (w/w), glycerol 0% (w/w), actuator orifice 0.30 mm
[2] = Flunisolide 50 mg/10 ml, ethanol 15.0 ± 0.1%, menthol 0.4% (w/w), glycerol 0.9% (w/w), actuator orifice 0.30 mm
[3] = Salbutamol base 20 mg/10 ml, ethanol 15% (w/w), glycerol 0% (w/w), oleic acid 0.35% (w/w), actuator orifice 0.30 mm
[4] = Salbutamol base 20 mg/10 ml, ethanol 15% (w/w), glycerol 1.3% (w/w), oleic acid 0.36% (w/w), actuator orifice 0.30 mm
[5] = combination BDP 50 mg/10 ml + Salbutamol base 20 mg/10 ml, ethanol 15.4 ± 0.2% (w/w), glycerol 0%, oleic acid 0%, actuator exit orifice 0.33 mm
[6] = combination BDP 50 mg/10 ml + Salbutamol base 20 mg/10 ml, ethanol 15.4 ± 0.2% (w/w), glycerol 0%, oleic acid 0.3%, actuator exit orifice 0.33 mm
[7] = combination BDP 50 mg/10 ml + Salbutamol base 20 mg/10 ml, ethanol 15.4 ± 0.2% (w/w), glycerol 0%, oleic acid 1.3%, actuator exit orifice 0.30 mm
[8] = combination BDP 50 mg/10 ml + Salbutamol base 20 mg/10 ml, ethanol 15.4 ± 0.2% (w/w), glycerol 1.2%, oleic acid 0.3%, actuator exit orifice 0.30 mm

With `CC1(C)O[C@@H]2C[C@H]3[C@@H]4C[C@H](F)C5=CC(=O)C=C[C@]5(C)[C@H]4[C@@H](O)C[C@]3(C)[C@]2(C(=O)CO)O1` [Flunisolide] the “Emitted dose” value [1] was 217.1 µg, the “Fine Particle Dose (FPD)” value [1] was 76.85 µg and the GSD [1] was 2.15. The MMAD [1] was 1.8 µm, the “Emitted dose” value [2] was 221.6 µg and the “Fine Particle Dose (FPD)” value [2] was 77.84 µg. The GSD [2] was 2.1 and the MMAD [2] was 2.9 µm.

`CC(C)(C)NCC(O)c1ccc(O)c(CO)c1` (centres unmarked) [Salbutamol base] gave an Emitted dose [3] of 85.8 µg, an FPD [3] of 29.1 µg and a GSD [3] of 2.3. The MMAD [3] was 1.7 μm, the Emitted dose [4] was 92.0 µg and the FPD [4] was 25.2 µg. For the same molecule, the GSD [4] was 2.4, the MMAD [4] was 2.8 μm and the Emitted dose [5] was 82.5 µg. The FPD [5] was 26.9 µg, the GSD [5] was 2.2 and the MMAD [5] was 1.7 μm. For the same molecule, the Emitted dose [6] was 84.8 µg, the FPD [6] was 24.0 µg and the GSD [6] was 2.6. For the same molecule, the MMAD [6] was 2.0 μm, the Emitted dose [7] was 85.9 µg and the FPD [7] was 23.9 µg. It also gave a GSD [7] of 2.1, an MMAD [7] of 2.4 μm and an Emitted dose [8] of 85.3 µg. The FPD [8] was 25.1 µg, the GSD [8] was 2.0 and the MMAD [8] was 3.0 μm.
